Molecular target: T1, Chitinase B (Serratia marcescens, UniProt P11797)
T1 sequence (P11797 whole entry): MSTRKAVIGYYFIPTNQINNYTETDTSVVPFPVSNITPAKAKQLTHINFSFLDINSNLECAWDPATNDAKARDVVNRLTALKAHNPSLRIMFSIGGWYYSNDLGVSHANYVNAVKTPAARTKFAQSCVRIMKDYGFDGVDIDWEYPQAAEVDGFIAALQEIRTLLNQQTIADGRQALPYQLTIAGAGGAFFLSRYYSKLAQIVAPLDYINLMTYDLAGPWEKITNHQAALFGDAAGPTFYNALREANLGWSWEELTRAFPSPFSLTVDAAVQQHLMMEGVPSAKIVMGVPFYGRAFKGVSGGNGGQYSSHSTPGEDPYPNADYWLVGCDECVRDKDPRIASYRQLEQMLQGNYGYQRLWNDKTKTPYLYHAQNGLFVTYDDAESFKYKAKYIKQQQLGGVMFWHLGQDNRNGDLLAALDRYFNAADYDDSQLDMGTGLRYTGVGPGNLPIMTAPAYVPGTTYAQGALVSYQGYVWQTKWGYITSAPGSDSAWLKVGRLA
Test: Inhibition of Serratia marcescens chitinase B

SMILES: CNC(=O)NC(=N)NCCC[C@@H]1NC(=O)[C@@H](C)NC(=O)C[C@@H](C(=O)O)NC(=O)C[C@@H](C(=O)O)NC(=O)[C@H](Cc2ccccc2)N(C)C1=O [ARGIFIN]
- Kd: 33 µM

Source: ChEMBL document CHEMBL1212888, “NMR spectroscopy and computational analysis of interaction between Serratia marcescens chitinase B and a dipeptide derived from natural-product cyclopentapeptide chitinase inhibitor argifin” (Bioorg Med Chem, 2010)
